The structures appear in SMILES notation. Like-named read-outs stand apart in the source and are kept apart here.

What all share (format): cell-based, human
One experiment deals with Target C mRNA. The experiment can be described thus: RT-qPCR splicing assay panel, Target C canonical junction (CJ) mRNA. Particulars: Homo sapiens, canonical junction (CJ) mRNA, RT-qPCR panel, Table 4A; read-out: Target C, decrease in CJ mRNA levels, IC50. As to the method:
(§1) Compounds described herein were used to modulate RNA transcript abundance in cells. The expression of a target mRNA was measured by detecting the formation of an exon-exon junction in the canonical transcript (CJ). A compound mediated exon-inclusion event was detected by observing an increase in formation of a new junction with an alternative exon (AJ). Real-time qPCR assays were used to detect these splicing switches and interrogate the potency of various compounds towards different target genes. A high-throughput real time quantitative PCR (RT-qPCR) assay was developed to measure these two isoforms of the mRNA (CJ and AJ) for exemplary genes, such as HTT, SMN2, and MYB, together with a control housekeeping gene, GAPDH or GUSB or PPIA, used for normalization. Briefly, the A673 or K562 cell line was treated with various compounds described herein (e.g., compounds of Formula (I), (II), (III), (IV)). After treatment, the levels of the HTT, MYB, or SMN2 mRNA targets were determined from each sample of cell lysate by cDNA synthesis followed by qPCR.
(§2) The A673 cell line was cultured in DMEM with 10% FBS. Cells were diluted with full growth media and plated in a 96-well plate (15,000 cells in 100ul media per well). The plate was incubated at 37° C. with 5% CO2 for 24 hours to allow cells to adhere. An 11-point 3-fold serial dilution of the compounds was made in DMSO then diluted in media in an intermediate plate. Compounds were transferred from the intermediate plate to the cell plate with the top dose at a final concentration of 10 uM in the well. Final DMSO concentration was kept at or below 0.25%. The cell plate was returned to the incubator at 37° C. with 5% CO2 for an additional 24 hours.
(§3) The K562 cell line was cultured in IMDM with 10% FBS. For K562, cells were diluted with full growth media and plated in either a 96-well plate (50,000 cells in 50 uL media per well) or a 384-well plate (8,000-40,000 cells in 45 uL media per well). An 11-point 3-fold serial dilution of the compounds were made in DMSO then diluted in media in an intermediate plate.
(§4) Compound was transferred from the intermediate plate to the cell plate with the top dose at a final concentration of 10 uM in the well. Final DMSO concentration was kept at or below 0.25%.
(§5) Final volume was 100 uL for 96-well plate and 50 uL for 384-well plate. The cell plate was then placed in an incubator at 37° C. with 5% CO2 for 24 hours.
(§6) The cells were then gently washed with 50 uL-100 uL cold PBS before proceeding to addition of lysis buffer. 30 uL-50 μL of room temperature lysis buffer with DNAse I (and optionally RNAsin) was added to each well. Cells were shaken/mixed thoroughly at room temperature for 5-10 minutes for lysis to take place and then 3 uL-5 μL of room temperature stop solution was added and wells were shaken/mixed again. After 2-5 minutes, the cell lysate plate was transferred to ice for RT-qPCR reaction setup. The lysates could also be frozen at −80° C. for later use.
(§7) In some cases, a direct lysis buffer was used. An appropriate volume of 3× lysis buffer (10 mM Tris, 150 mM NaCl, 1.5%-2.5% Igepal and 0.1-1 U/uL RNAsin, pH 7.4) was directly added to either K562 or A673 cells in media and mixed by pipetting 3 times. The plates were then incubated at room temperature with shaking/rocking for 20-50 minutes to allow for lysis to take place. After this time, the cell lysate plate was transferred to ice to set up for the RT-qPCR reactions. The lysates could also be frozen at −80° C. for later use.
(§8) To set up 10 uL RT-qPCR reactions, cell lysates were transferred to 384-well qPCR plates containing the master mix according to the table below. The plates were sealed, gently vortexed, and spun down before the run. The volumes were adjusted accordingly in some instances where the reaction was carried in 20 μL. The table below summarizes the components of the RT-qPCR reactions: […]

In a further experiment the test system is HTT mRNA. The experiment can be described thus: RT-qPCR splicing assay, HTT canonical (CJ) and alternative (AJ) junction mRNA. Particulars: Homo sapiens; for AC50: read-out: HTT AJ (AC50, increase in AJ mRNA). As to the method:
as §1, §2, §3, §4, §5, §6, §7, §8

The subject of the next experiment is MYB mRNA. The experiment can be described thus: RT-qPCR splicing assay, MYB canonical (CJ) and alternative (AJ) junction mRNA. Particulars: Homo sapiens; for AC50: read-out: MYB AJ (AC50, increase in AJ mRNA). As to the method: as §1, §2, §3, §4, §5, §6, §7, §8
A further experiment relates to SMN2 mRNA. The experiment can be described thus: RT-qPCR splicing assay panel, SMN2 canonical junction (CJ) mRNA. Particulars: Homo sapiens, canonical junction (CJ) mRNA, RT-qPCR panel, Table 4A; read-out: SMN2, decrease in CJ mRNA levels, IC50. As to the method:
as §1, §2, §3, §4, §5, §6, §7, §8
(Real-time PCR tracks product formation cycle by cycle.)

[1] abbreviates: 24 h, Table 3A, A673 or K562 cells, 24 h treatment.
[2] abbreviates: 24 h, Table 3A, A673 or K562 cells, 24 h treatment, read-out: HTT CJ (IC50, decrease in CJ mRNA).
[3] abbreviates: canonical junction (CJ) mRNA, RT-qPCR panel, Table 4A, read-out: HTT, decrease in CJ mRNA levels, IC50.
Setting [4] is: 24 h, Table 3A, A673 or K562 cells, 24 h treatment, read-out: MYB CJ (IC50, decrease in CJ mRNA).
The mark [5] stands for this setting: canonical junction (CJ) mRNA, RT-qPCR panel, Table 4A, read-out: MYB, decrease in CJ mRNA levels, IC50.

Consider `Oc1cc(-c2cn[nH]c2)ccc1-c1ccc(N2CCC(NC3(C(F)(F)F)CC3)C2)nn1` (stereo not drawn) [Compound 110, 5-(1H-pyrazol-4-yl)-2-[6-(3-{[1-(trifluoromethyl)cyclopropyl]amino}pyrrolidin-1-yl)pyridazin-3-yl]phenol], for which the IC50 in the experiment with Target C mRNA, in the experiment on HTT mRNA (setting [2]), in the experiment with HTT mRNA (setting [3]), in the experiment on MYB mRNA (setting [4]), in the experiment with MYB mRNA (setting [5]) and in the experiment on SMN2 mRNA was greater than 10000 nM each time. Besides, the AC50 in the experiment on HTT mRNA (setting [1]) and in the experiment with MYB mRNA (setting [1]) was greater than 10000 nM throughout.

On to `COc1cc(-c2ccc(-c3ccc(N4CCC(NC5CC(C)(C)C5)C4)nn3)c(O)c2)cnn1` (stereo not drawn) [Compound 352, 2-(6-{3-[(3,3-dimethylcyclobutyl)amino]pyrrolidin-1-yl}pyridazin-3-yl)-5-(6-methoxypyridazin-4-yl)phenol], for which the IC50 in the experiment on Target C mRNA, with HTT mRNA (setting [2]), in the experiment on HTT mRNA (setting [3]), with MYB mRNA (setting [4]), in the experiment on MYB mRNA (setting [5]) and in the experiment on SMN2 mRNA was 100 to 1000 nM each time. Moreover, the AC50 in the experiment with HTT mRNA (setting [1]) lay in the range of 100 to 1000 nM; in the experiment on MYB mRNA (setting [1]) it was 1000 to 10000 nM.

On to `NCCNC1CCN(c2ccc(-c3ccc(-c4cn[nH]c4)cc3O)nn2)C1` (stereo not drawn) [Compound 208], for which the IC50 in the experiment on Target C mRNA was 1000 to 10000 nM; with HTT mRNA (setting [2]), 100 to 1000 nM; in the experiment on HTT mRNA (setting [3]), 100 to 1000 nM; in the experiment on MYB mRNA (setting [4]), 1000 to 10000 nM; in the experiment with MYB mRNA (setting [5]), 1000 to 10000 nM; in the experiment with SMN2 mRNA it was 100 to 1000 nM. Besides, the AC50 in the experiment on HTT mRNA (setting [1]) and with MYB mRNA (setting [1]) was 100 to 1000 nM in each case.

On to `COc1cc(-c2ccc(-c3ccc(N4CCC(NC5CC(F)(F)C5)C4)nn3)c(O)c2)cnn1` (stereo not drawn) [Compound 334, 2-(6-(3-((3,3-difluorocyclobutyl)amino)pyrrolidin-1-yl)pyridazin-3-yl)-5-(6-methoxypyridazin-4-yl)phenol], for which the IC50 was 100 to 1000 nM in the experiment with Target C mRNA; less than 100 nM with HTT mRNA (setting [2]); less than 100 nM with HTT mRNA (setting [3]); 100 to 1000 nM with MYB mRNA (setting [4]); 100 to 1000 nM with MYB mRNA (setting [5]); 100 to 1000 nM with SMN2 mRNA. Further, the AC50 in the experiment on HTT mRNA (setting [1]) lay within 100 to 1000 nM; in the experiment with MYB mRNA (setting [1]), 1000 to 10000 nM.

In the case of `Cn1cc2cc(-c3ccc(-c4ccc(N5CCC(NC6CCC6)C5)nn4)c(O)c3)cc(F)c2n1` (stereo not drawn) [Compound 328], the IC50 in the experiment with Target C mRNA is 100 to 1000 nM; with HTT mRNA (setting [2]), less than 100 nM; in the experiment on HTT mRNA (setting [3]) it was less than 100 nM; in the experiment with MYB mRNA (setting [4]), 100 to 1000 nM; in the experiment on MYB mRNA (setting [5]) it was 100 to 1000 nM; in the experiment on SMN2 mRNA, less than 100 nM. Besides, the AC50 with HTT mRNA (setting [1]) was less than 100 nM; in the experiment with MYB mRNA (setting [1]), 100 to 1000 nM.

For `Cc1ncc(-c2cc(O)c(-c3ccc(N4CC[C@@H](NCC5CCC5)C4)nn3)cc2F)s1` [Compound 395], the IC50 in the experiment with Target C mRNA is 100 to 1000 nM; in the experiment on HTT mRNA (setting [2]), less than 100 nM; in the experiment on HTT mRNA (setting [3]) it was less than 100 nM; with MYB mRNA (setting [4]), 100 to 1000 nM; in the experiment with MYB mRNA (setting [5]), 100 to 1000 nM; with SMN2 mRNA it was less than 100 nM. Further, the AC50 in the experiment on HTT mRNA (setting [1]) and in the experiment on MYB mRNA (setting [1]) was 100 to 1000 nM throughout.

For orientation: IC50 means the point on the concentration scale where inhibition reaches its midpoint. Usually AC50 stands for the midpoint of the concentration-response curve, whichever way the signal moves.

These data come from US20250333397A1 (REMIX THERAPEUTICS INC., priority 2021, published 2025).
